Laboratory results: patent US20060292653A1, “Metal mediated fluorescence superquenching assays for detection of phosphorylation and dephosphorylation of quencher-labeled substrates” (priority 2005, published 2006)

Assays:
Format in all cases: biochemical
[1] = biological target: T1, PI3 delta (Homo sapiens, UniProt O00329); test: Enhancer activity, real-time (kinetic) versus endpoint monitoring
T1 construct: purchased Upstate (Lake Placid, N.Y.)
Source text: (§1) Kinetic or real-time assays allow one to observe the mode of action of inhibitors and activator of enzyme activity in “real time”. Several inhibitor profiles are contemplated herein.
(§2) Another type of inhibitor profile utilizes the mode of action of enhancers. Enhancers may cause a very steep increase in activity (compared to control) within several minutes of reaction and then flatten out over time to an activity equal to that of the control. Thus, endpoint measurement could miss these enhancers. For example, Trypohostin 35, Trypohostin 25 and GW 5074 are enhancers of PI3 alpha, beta, and delta, respectively, in real time, and result in a >50% increase of activity within 5 minutes of reaction compared to ˜20% when monitored in endpoint mode. Enhancers may not be of therapeutic value for PI3Ks (since their pathological effect is exerted mainly by over-activity to begin with) but knowledge of chemical structure of enhancers may facilitate identification and/or confirmation of environmental pathogens, which may cause disease.

[2] = biological target: T2, PI3K δ (Homo sapiens, UniProt O00329); conditions: ratiometric 490 nm/574 nm
T2 construct: purchased Upstate (Lake Placid, N.Y.)
Procedure: Percent activities are plotted for each compound screened using the ratio of wavelengths at 490 nm/574 nm. Inhibition values were calculated relative to positive and negative controls wells and corrected for background (filled squares, filled diamonds). […] Final concentrations of enzyme, substrate and ATP were 2.6 nM, 250 nM and 50 μM. The delta RFU between reactions in the presence and absence of enzyme were obtained and used to calculate % inhibition.

[3] = biological target: T3, PI3 beta (Homo sapiens, UniProt P42338); test: Enhancer activity, real-time (kinetic) versus endpoint monitoring
T3 construct: purchased Upstate (Lake Placid, N.Y.)
Source text: as §1, §2

[4] = biological target: T4, PI3 alpha (Homo sapiens, UniProt P42336); test: as above
T4 construct: purchased Upstate (Lake Placid, N.Y.)
Source text: as §1, §2

[5] = real time, within 5 minutes of reaction

T3 sequence (P42338 whole entry): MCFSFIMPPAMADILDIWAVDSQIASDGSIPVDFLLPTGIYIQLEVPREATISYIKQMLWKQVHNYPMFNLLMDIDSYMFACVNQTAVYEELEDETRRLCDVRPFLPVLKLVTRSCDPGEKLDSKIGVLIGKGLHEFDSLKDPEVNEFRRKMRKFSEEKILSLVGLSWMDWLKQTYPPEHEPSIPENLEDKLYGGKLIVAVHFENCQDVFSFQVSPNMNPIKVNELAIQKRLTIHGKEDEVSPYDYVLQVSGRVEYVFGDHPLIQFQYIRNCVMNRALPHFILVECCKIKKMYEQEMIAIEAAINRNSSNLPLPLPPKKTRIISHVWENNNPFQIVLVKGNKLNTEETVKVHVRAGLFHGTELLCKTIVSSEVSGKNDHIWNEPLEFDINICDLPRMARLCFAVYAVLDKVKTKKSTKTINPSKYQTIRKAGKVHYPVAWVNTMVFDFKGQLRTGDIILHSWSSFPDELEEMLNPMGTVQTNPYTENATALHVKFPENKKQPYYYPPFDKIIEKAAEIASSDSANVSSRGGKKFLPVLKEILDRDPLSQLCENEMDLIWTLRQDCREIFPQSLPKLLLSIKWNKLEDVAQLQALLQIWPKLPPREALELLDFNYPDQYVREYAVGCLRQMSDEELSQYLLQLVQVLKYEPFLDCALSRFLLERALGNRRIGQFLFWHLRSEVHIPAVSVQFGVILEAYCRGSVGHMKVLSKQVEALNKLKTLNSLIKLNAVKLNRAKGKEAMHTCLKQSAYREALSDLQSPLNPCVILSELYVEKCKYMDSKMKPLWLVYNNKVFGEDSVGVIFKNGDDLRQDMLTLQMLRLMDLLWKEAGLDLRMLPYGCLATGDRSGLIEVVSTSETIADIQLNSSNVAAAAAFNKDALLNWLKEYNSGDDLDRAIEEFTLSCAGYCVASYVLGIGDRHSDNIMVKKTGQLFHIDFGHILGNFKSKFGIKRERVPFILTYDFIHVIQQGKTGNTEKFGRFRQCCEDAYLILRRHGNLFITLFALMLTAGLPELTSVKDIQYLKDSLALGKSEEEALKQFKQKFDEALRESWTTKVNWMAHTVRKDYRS
T3 sequence (P27986 whole entry partner): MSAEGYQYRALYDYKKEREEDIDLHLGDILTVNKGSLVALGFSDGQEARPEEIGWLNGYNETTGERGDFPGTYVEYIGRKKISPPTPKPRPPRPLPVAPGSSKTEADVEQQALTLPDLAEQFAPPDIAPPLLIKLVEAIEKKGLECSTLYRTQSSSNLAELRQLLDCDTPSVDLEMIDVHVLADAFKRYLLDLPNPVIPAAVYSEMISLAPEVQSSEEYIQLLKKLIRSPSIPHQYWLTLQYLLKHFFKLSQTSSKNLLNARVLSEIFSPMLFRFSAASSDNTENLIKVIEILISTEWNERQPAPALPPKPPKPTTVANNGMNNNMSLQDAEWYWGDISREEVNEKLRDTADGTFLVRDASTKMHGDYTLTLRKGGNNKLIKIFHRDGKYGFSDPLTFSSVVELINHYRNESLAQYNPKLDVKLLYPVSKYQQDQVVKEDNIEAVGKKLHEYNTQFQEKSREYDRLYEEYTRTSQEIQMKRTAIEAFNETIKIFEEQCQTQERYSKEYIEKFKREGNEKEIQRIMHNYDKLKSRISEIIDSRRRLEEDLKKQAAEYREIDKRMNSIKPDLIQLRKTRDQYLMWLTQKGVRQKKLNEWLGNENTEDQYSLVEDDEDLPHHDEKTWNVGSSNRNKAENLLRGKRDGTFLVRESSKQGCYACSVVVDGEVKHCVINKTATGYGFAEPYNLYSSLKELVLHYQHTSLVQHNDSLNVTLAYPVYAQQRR
T4 sequence (P42336 whole entry, species assumed): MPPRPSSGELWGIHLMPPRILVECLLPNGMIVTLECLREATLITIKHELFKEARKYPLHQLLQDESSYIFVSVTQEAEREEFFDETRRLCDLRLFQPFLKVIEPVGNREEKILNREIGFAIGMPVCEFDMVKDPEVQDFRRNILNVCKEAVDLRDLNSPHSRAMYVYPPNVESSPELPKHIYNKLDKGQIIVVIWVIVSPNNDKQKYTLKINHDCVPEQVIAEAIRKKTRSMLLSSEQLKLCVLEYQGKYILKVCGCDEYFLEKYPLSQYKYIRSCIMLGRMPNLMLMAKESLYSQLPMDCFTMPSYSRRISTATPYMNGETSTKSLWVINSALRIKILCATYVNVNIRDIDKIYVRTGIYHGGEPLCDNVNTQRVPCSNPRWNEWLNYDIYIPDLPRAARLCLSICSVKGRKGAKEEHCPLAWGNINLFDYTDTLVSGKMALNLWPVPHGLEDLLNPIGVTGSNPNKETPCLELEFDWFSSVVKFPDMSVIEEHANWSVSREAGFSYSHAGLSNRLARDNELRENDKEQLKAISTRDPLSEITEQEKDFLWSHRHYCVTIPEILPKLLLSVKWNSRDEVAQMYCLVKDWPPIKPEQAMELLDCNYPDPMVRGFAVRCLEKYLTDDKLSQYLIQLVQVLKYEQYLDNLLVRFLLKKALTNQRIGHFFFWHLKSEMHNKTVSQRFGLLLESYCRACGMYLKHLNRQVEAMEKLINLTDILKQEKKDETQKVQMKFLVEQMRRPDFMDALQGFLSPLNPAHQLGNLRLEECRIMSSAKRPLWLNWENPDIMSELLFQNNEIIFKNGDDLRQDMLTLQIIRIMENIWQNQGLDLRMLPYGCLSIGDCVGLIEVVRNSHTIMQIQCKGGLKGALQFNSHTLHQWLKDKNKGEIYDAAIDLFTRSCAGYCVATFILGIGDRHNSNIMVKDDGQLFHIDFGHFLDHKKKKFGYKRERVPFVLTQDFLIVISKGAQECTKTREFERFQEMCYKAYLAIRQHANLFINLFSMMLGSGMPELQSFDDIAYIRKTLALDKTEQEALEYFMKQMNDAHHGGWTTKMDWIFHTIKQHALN
T4 sequence (P27986 whole entry partner, species assumed): as the sequence (P27986 whole entry partner) above
T1 sequence (O00329 whole entry, species assumed): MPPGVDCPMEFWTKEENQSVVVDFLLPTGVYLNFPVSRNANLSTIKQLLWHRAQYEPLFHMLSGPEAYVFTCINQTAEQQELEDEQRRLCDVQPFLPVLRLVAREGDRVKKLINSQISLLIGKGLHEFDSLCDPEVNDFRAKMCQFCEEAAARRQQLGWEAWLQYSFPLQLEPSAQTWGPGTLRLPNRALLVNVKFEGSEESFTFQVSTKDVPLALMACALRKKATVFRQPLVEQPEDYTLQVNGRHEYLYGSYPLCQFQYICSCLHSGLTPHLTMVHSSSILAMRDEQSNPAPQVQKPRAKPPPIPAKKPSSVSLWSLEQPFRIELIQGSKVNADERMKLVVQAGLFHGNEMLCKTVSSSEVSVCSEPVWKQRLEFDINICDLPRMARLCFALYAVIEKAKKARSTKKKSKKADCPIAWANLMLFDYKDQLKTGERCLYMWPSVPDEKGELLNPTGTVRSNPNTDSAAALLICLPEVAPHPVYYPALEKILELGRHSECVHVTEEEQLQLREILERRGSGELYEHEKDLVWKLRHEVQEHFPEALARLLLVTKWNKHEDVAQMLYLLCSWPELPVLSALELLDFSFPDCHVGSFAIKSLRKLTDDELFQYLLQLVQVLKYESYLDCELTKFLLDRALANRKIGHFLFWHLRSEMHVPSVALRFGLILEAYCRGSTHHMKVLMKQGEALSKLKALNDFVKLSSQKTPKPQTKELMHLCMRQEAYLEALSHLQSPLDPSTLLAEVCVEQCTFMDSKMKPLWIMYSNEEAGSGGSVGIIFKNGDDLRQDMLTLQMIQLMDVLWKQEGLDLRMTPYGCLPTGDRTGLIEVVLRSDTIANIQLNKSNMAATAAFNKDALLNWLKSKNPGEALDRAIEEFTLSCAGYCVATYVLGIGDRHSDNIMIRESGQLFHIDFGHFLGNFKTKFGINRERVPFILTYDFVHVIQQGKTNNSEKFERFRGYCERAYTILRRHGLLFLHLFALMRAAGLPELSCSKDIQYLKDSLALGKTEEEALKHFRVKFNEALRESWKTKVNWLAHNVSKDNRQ
T1 sequence (P27986 whole entry partner, species assumed): as the sequence (P27986 whole entry partner) above
T2 sequence (O00329 whole entry, species assumed): as the sequence (O00329 whole entry, species assumed) above
T2 sequence (P27986 whole entry partner, species assumed): as the sequence (P27986 whole entry partner) above

O=C1Nc2ccc(I)cc2/C1=C/c1cc(Br)c(O)c(Br)c1 [GW 5074]
increase of activity compared to control ([1]; endpoint mode): ~20% | increase of activity compared to control [1, 5]: > 50%

O.O.O=c1c(O)c(-c2ccc(O)c(O)c2)oc2cc(O)cc(O)c12 [Quercetin Dihydrate]
identification as inhibitor in the 84 compound screen [2]: correctly identified

N#CC(C#N)=Cc1cc(O)c(O)c(O)c1 [Trypohostin 25]
increase of activity compared to control ([3]; endpoint mode): ~20% | increase of activity compared to control [3, 5]: > 50%

Trypohostin 35
increase of activity compared to control ([4]; endpoint mode): ~20% | increase of activity compared to control [4, 5]: > 50%
